According to US20190070174A1, “METHODS OF TREATING NEURODEGENERATIVE DISEASES” (priority 2016, published 2019):

How the values were obtained:
[1] = Pharmacokinetics after intraperitoneal injection; type: in vivo, mouse; conditions: 15 mg/kg IP, mice
ATXN3 = experiment: Subchronic treatment of Q84 mice, anti-ATXN3 immunofluorescence of ventral pons; type: in vivo, human
Description: (§1) YACMJD84.2 transgenic mice were housed in cages with a maximum number of five animals and maintained in a standard 12-hour light/dark cycle with food and water ad libitum. Genotyping was performed using DNA isolated from tail biopsy at the time of weaning, and genotypes of all studied mice were confirmed using DNA extracted from tails collected post-mortem. […] Five hours after the final injection, mice were anesthetized with ketamine/xylazine and perfused transcardially with phosphate buffered saline (PBS) (for RNA and protein studies), and brains were immediately placed on dry ice and stored at −80° C.
Brains from mice perfused with 4% PFA were post-fixed overnight at 4° C. in the same fixative, immersed in 30% sucrose/PBS, and sectioned on a sledge microtome (SM200R Leica Biosystems). […] Neuronal nuclear ATXN3 was quantified using ImageJ by quantifying ATXN3 fluorescence in DAPI and NeuN double-positive nuclei. Corrected total cell fluorescence (CTCF) was obtained by measuring ATXN3 fluorescence in 15 nuclei/image field/mouse and normalizing for nuclei area using the equation CTCF=fluorescence intensity−(nucleus area×mean fluorescence of background readings). ATXN3 positive puncta were quantified using ImageJ by assessing particle fluorescence (applying the triangle threshold) in the same image fields described above.

ATXN3Q55 [2] = experiment: Thioflavin T (ThT) fluorescence fibril formation assay; type: biochemical, human; conditions: ATXN3Q55 10 μM, compound 400 μM
Description: (§2) pGEX-6P1 plasmids encoding GST-ATXN3Q26 and GST-ATXN3Q55 were transformed in Rosetta (DE3) BL21 cells. Colonies grown overnight in LB/ampicillin/chloramphenicol plates at 37° C. were resuspended in 150 mL of the same selection medium and incubated at 37° C., 230 rpm for 2 hours. Bacterial cultures of 1 L of medium were prepared by inoculating 50 mL of the pre-culture and incubating at 37° C., 230 rpm until reaching an OD (600 nm) of 0.6 to 0.8. Expression of fusion proteins was then induced by adding 1 mM isopropyl-1-thio-D-galactopyranoside (IPTG) for 3 hours at 37° C. Cells were collected by centrifugation and stored at −20° C. […] Chromatography fractions were analyzed by SDS-PAGE, and the ones containing pure proteins were concentrated and protein concentration was determined in the Nanodrop (Thermo Scientific) by absorption at 280 nm.
(§3) Samples and blank control (only buffer) (110 μL) were dispensed in each well of a Black/Clear flat bottom 96-well plate (Corning), which was sealed and incubated at 37° C. with agitation in a FLUOstar Omega (BMG Labtech Inc) plate reader. Fluorescence of three replicates of each sample was measured every 10 min for up to 5 days. The […] wavelengths of the filter were 440 nm and 490 nm, respectively, and readings were taken using 90% gain adjustment. Values for protein solutions were normalized to readings of blank buffer.

ATXN3Q26 = experiment: as above; type: biochemical, human; conditions: ATXN3Q26 10 μM, compound 400 μM
Description: as §2, §3

5HT2A transcripts = experiment: Subchronic treatment of Q84 mice, quantitative RT-PCR; type: in vivo, mouse; conditions: brainstem of Q84 mice
Description: as §1
Reverse transcription of 1.5 μg of total RNA per sample was performed using the iScript cDNA synthesis kit (Bio-RAD). Human ATXN3 and mouse Atxn3, Drd2, 5HT1A, 5HT2A and Gapdh (housekeeping) transcript levels were accessed by quantitative real-time PCR. Relative gene expression was determined using the ΔΔCT method, normalizing for Gapdh mRNA levels.

insoluble ATXN3 = experiment: Subchronic treatment of Q84 mice, filter trap analysis of insoluble fractions; type: in vivo, human; conditions: brainstem insoluble fractions
Description: as §1
Protein lysates from cell cultures, mouse brain slices or mouse brains were obtained by lysis in RIPA buffer containing protease inhibitors (Complete, Roche Diagnostics), followed by sonication and centrifugation. The supernatants (soluble protein fractions) were collected, total protein concentration was determined using the BCA method (Pierce) and then stored at −80° C. […] Pellets corresponding to insoluble protein fractions were resuspended in 100 μL of Laemmli buffer 2× and boiled for 10 min. Insoluble proteins were then quantified, and 100 μg were loaded in a filter trap assay apparatus and transferred to a nitrocellulose membrane (0.45 μm pore) that was incubated overnight with rabbit anti-MJD antibody (1:5000) at 4° C. […] Band intensity was quantified by densitometry using ImageJ.

ATXN3Q55 [3] = experiment: Native PAGE analysis at the end of the ThT assay; type: biochemical, human
[4] = mouse, in vivo; cited from earlier work

Structure (SMILES): O=C1CCc2ccc(OCCCCN3CCN(c4cccc(Cl)c4Cl)CC3)cc2N1 [aripiprazole]
- time of maximal concentration in the brain post-injection [1]: 30 min
- ATXN3 nuclear levels vs vehicle (ATXN3; neuronal nuclei of ventral pons): no differences
- total ATXN3 fluorescence vs control mice (ATXN3; pons): non-significant trend towards a decrease
- kinetics of ATXN3Q55 fibril formation in the presence or absence of compound (ATXN3Q55 [2]): identical
- fibril formation by normal ATXN3Q26 (ATXN3Q26): did not interfere with fibril formation
- 5HT2A transcripts (5HT2A transcripts): increasing
- insoluble ATXN3 vs vehicle (insoluble ATXN3): no differences
- HMW or other species of ATXN3Q55 (ATXN3Q55 [3]): no differences
- maximum tolerable dose [4]: 15 mg/kg
